Patent US8859596B2, “Compounds as cannabinoid receptor ligands” (priority 2008, dated 2014)

Assays:
[1] = acute thermal, persistent, inflammatory, neuropathic pain models; cited from earlier work
[2] = biological target: rat CB1 (Rattus norvegicus (Rat), UniProt P20272); assay: CB1 cyclase functional assay (HitHunter cAMP); format: cell-based; settings: HEK cells, forskolin 37 μM; read-out: rCB1 cyclase (EC50)
Experimental: (§1) The cyclase functional assays were performed using the HitHunter™ cAMP assay kit from DiscoveRx (Fremont, Calif.) according to vendor's protocol. Briefly, HEK cells expressing CB2 or CB1 receptors (rat or human) were detached using cell dissociation buffer (Invitrogen, Carlsbad, Calif.), dispersed and placed in suspension at 10,000 cells per well in 96 well plates prior to the assay. Cell suspensions were incubated at 37° C. for 20 min with variable concentrations of test ligands and or 10 μM CP 55,940-positive control in the presence of a fixed concentration of forskolin (18 μM for rat CB2 and 37 μM for rat CB1) in Dulbescco's phosphate-buffered saline (Invitrogen, Carlsbad, Calif.) supplemented with bovine serum albumin (0.01% final concentration). The reactions were terminated by the addition of lysis buffer and the luminescence was detected following the procedure according to the manufacturer's instructions. EC50 values were calculated using sigmoidal dose-response curve fitting from Prism (GraphPad).

[3] = biological target: T1, rat CB2 (Rattus norvegicus (Rat), UniProt Q9QZN9); assay: rat CB2 radioligand binding assay ([3H]CP 55,940 competition); settings: HEK293 membranes, 0.5 nM [3H]CP 55,940; read-out: rat CB2 (Ki)
Method in brief: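 Membranes from HEK293 cells stably expressing rat CB2 (20 μg protein/well) competed with 0.5 nM [3H]CP 55,940 and five displacer concentrations, 45 min at 30° C in Tris/EDTA/MgCl2/BSA buffer pH 7.4. Filtration and scintillation counting; nonspecific binding with 10 μM unlabeled CP 55,940.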

[4] = biological target: T1, rat CB2; assay: CB2 cyclase functional assay (HitHunter cAMP); format: cell-based; settings: HEK cells, forskolin 18 μM
Experimental: as §1

[5] = biological target: human CB2 receptors (Homo sapiens (Human), UniProt P34972); assay: human CB2 radioligand binding assay ([3H]CP 55,940 competition); settings: HEK293 membranes, 0.5 nM [3H]CP 55,940; read-out: human CB2 (Ki)
Method in brief: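 Membranes from HEK293 cells stably expressing human CB2 (5 μg protein/well) competed against 0.5 nM [3H]CP 55,940 with five concentrations of test ligand (0.01 nM to 10 μM), pH 7.4 Tris buffer with BSA, 90 min at 30 °C. Filtration and scintillation counting; nonspecific binding with 10 μM unlabeled CP 55,940.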

[6] = neuropathic, incisional, chronic and acute inflammatory pain; cited from earlier work
[7] = test system: rat; settings: rat formalin model; cited from earlier work
[8] = test system: β-amyloid-induced microglial activation; settings: in vitro; cited from earlier work
[9] = test system: apolipoprotein E knockout mice; settings: low doses; cited from earlier work
[10] = test system: mice; settings: cited from earlier work

T1 sequence (Q9QZN9 whole entry): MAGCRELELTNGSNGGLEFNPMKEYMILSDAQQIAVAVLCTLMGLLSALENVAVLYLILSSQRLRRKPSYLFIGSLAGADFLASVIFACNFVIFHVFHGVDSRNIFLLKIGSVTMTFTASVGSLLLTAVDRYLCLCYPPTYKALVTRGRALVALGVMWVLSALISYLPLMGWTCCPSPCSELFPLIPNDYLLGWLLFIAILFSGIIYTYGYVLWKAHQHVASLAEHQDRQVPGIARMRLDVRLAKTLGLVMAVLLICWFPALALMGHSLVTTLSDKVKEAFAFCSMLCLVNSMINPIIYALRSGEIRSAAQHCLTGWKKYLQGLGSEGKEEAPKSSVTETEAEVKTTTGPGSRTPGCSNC
Chain of human CB2 receptors (P34972 whole entry): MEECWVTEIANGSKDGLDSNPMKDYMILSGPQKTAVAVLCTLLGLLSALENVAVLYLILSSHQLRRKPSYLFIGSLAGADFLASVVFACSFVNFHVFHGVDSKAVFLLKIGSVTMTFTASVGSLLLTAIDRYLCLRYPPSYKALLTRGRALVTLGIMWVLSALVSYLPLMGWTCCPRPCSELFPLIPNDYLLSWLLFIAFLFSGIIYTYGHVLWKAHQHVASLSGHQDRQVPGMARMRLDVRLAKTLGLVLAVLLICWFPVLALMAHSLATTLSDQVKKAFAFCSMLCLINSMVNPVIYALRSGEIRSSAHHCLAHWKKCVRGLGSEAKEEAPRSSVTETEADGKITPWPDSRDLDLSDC

Molecule	EC50 [2]	Ki [3]	EC50 [4]	Ki [5]	further results
CN1CCCCC1Cn1cc(C(=O)c2cc([N+](=O)[O-])ccc2I)c2ccccc21 (stereo not drawn) [AM-1241]					analgesic efficacy [1]: robust analgesic efficacy
CC(C)(C)NOc1ccc(C(F)(F)F)cc1C(=O)/N=c1\sc(C(C)(C)C)nn1CC1CCC1 [Example 165, 2-[(tert-butylamino)oxy]-N-[(2Z)-5-tert-butyl-3-(cyclobutylmethyl)-1,3,4-thiadiazol-2(3H)-ylidene]-5-(trifluoromethyl)benzamide]	0.925 µM	0.0008 µM	0.00093 µM	0.0028 µM	
CCCCn1nc(C(C)(C)C)s/c1=N\C(=O)c1cc(C(F)(F)F)ccc1ON=C(N)C(C)(C)C [Example 166, 2-({[1-amino-2,2-dimethylpropylidene]amino}oxy)-N-[(2Z)-3-butyl-5-tert-butyl-1,3,4-thiadiazol-2(3H)-ylidene]-5-(trifluoromethyl)benzamide]	6.96 µM	0.043 µM	0.00314 µM	0.065 µM	
CCCCn1nc(C(C)(C)C)s/c1=N\C(=O)c1cc(C(F)(F)F)ccc1ON=C(C)C(F)(F)F [Example 172, N-[(2Z)-3-butyl-5-tert-butyl-1,3,4-thiadiazol-2(3H)-ylidene]-5-(trifluoromethyl)-2-({[2,2,2-trifluoro-1-methylethylidene]amino}oxy)benzamide]	> 27 µM	0.06 µM	0.028 µM	0.052 µM	
COc1ccc2c(c1)c(CCN1CCOCC1)c(C)n2C(=O)c1cccc(Cl)c1Cl [GW405833]					efficacy in pain models [6]: efficacious
CCCCCCC(C)(C)c1cc(OC)c([C@@H]2C=C(CO)[C@@H]3C[C@H]2C3(C)C)c(OC)c1 [HU-308]					antinociceptive response [7]: elicits an antinociceptive response
CCCC(C)(C)c1ccc2c(c1)OC(C)(C)[C@@H]1CC=C(C)C[C@@H]21 [JWH-133]					effect on β-amyloid-induced microglial activation and neurotoxicity [8]: abrogated β-amyloid-induced microglial activation and neurotoxicity
(−)-Δ^9-Tetrahydrocannabinol [THC]					effect on progression of atherosclerotic lesions [9]: slowed the progression of atherosclerotic lesions
SR144528					effect on osteoclast activity and ovariectomy-induced bone loss [10]: inhibit osteoclast activity and reverse ovariectomy-induced bone loss
